From US10022342B2, “Methods and compositions for treating multiple myeloma” (Ohio State Innovation Foundation, priority 2015, dated 2018)
pIC50: −log10 of the molar value.

What was measured:
[1] = tested on: MM cells; assay: IC50 concentrations of HDAC inhibitors in MM cells; format: cell-based; conditions: Homo sapiens
[2] = tested on: U266, RPMI, and MM1S cells; assay: Apoptosis (annexin) and necrosis (propidium iodide) by HDAC inhibitors, FIG. 15; format: cell-based, human
Method: Apoptosis was measured by annexin staining while cell necrosis was measured by propidium iodide staining.
CD44 surface expression was analyzed by staining cells with CD44-FITC antibody (BD Biosciences) for 30 min. in the dark, at room temperature. Apoptosis was measured by Annexin V-FITC and Propidium Iodide (PI) (Clontech) staining for 15 min. in the dark, at room temperature and data immediately acquired on a Beckman Coulter FC500 (Beckman Coulter) machine. Analysis was conducted using the FlowJo Software vX.0.7 (Tree Star Inc.). For the multiparametric analysis, the bone marrow samples were stained with CD38-PE (347687; BD Bioscience), CD138-APC (347193; BD Bioscience), CD45-ECD (A07784; Beckman Coulter), CD44-FITC (BD Bioscience) and AnnexinV-FITC (Clontech) for 30 minutes, washed with PBS and immediately analyzed with Gallios cytometer (Beckman Coulter).

[3] = tested on: MM.1S GFP/Luc+ cells; assay: NOD-SCID mice engrafted i.v. with MM.1S GFP/Luc+ cells, oral AR-42 + pomalidomide; format: in vivo; conditions: 25 mg/kg each
Description: To investigate whether the oral combination treatment of AR-42 and pomalidomide improves the survival of mice engrafted with MM cells, 40 NOD-SCID mice were engrafted with 10×10^6 MM.1S GFP/Luc+ cells by intravenous injection (IV). Ten days later, mice with the same tumor burden (as calculated by luminescence) (FIG. 14C) were randomly divided into 4 treatment groups (10 mice per group): AR-42 alone, pomalidomide alone, AR-42+pomalidomide, and vehicle control (Ctrl, 8% DMSO in PBS). Mice were treated by oral administration (gavage) daily with pomalidomide (25 mg/kg) or Ctrl, and three times a week (Mon-Tues-Fri) with AR-42 (25 mg/kg) or Ctrl, until elimination criteria, including paralysis, extreme weight loss and dehydration, were reached.

Cc1[nH]c2ccccc2c1CCNCc1ccc(/C=C/C(=O)NO)cc1 [LBH, reference compound]
pIC50 [1]: 8.00 | dose response curve ([2]; data not shown): No dose response curve could be obtained

O=C(CCCCCCC(=O)Nc1ccccc1)NO [SAHA, suberoylanilide hydroxamic acid, reference compound]
apoptosis (annexin staining) ([2]; 24 and 48 hours, 0.25, 0.5, and 1 μM): limited impact on apoptosis

Nc1cccc2c1C(=O)N(C1CCC(=O)NC1=O)C2=O (stereo not shown) [pomalidomide, reference compound]
median survival [3]: 42 days
